In patent US11433055B2, “Chromane monobactam compounds for the treatment of bacterial infections” (priority 2017, dated 2022):
Structures can show the parent of a compound that is named as a salt.

Key:
Assay type in all cases: cell-based
Details in all cases: lowest concentration inhibiting 95% of bacterial growth; in the presence of β lactamase inhibitor (BLi, Relebactam); 22 hours, 35±2° C., OD600
[1] = tested on: Klebsiella pneumoniae expressing KPC-1 (CL6569)
Procedure: (§1) Antibiotic Activity: Determination of Growth Inhibitory Concentration
(§2) The concentrations of compounds required to inhibit the growth of various strains of bacteria were determined in an assay that assessed bacterial growth by measuring optical density at 600 nm (OD600). The bacterial strains tested included the clinical strains Escherichia coli expressing NDM-1 (CLB30016), Klebsiella pneumoniae expressing KPC-1 (CL6569), Acinetobacter baumannii expressing TEM-1, AmpC, and Oxa-24/40 (CL6188) and Pseudomonas aeruginosa expressing AmpC (CL5701). All compounds were tested in the presence of a β lactamase inhibitor (BLi, Relebactam) in 384-well microplates. The clinical strains were stored as frozen single use stocks, thawed and diluted into 1.1× cation-adjusted Mueller-Hinton II broth to achieve approximately 2×10^5 CFU/mL. Test compounds were dissolved in DMSO and diluted 1:50 in the assay, resulting in a final concentration range of 100 μM to 0.098 μM. On the day of the assay, 1 μL of test compound was added to the plate followed by 4 μL of 50 μg/mL BLi in MOPS buffer and 45 μL of diluted bacteria. Plates were centrifuged at 1000 rpm for 30 seconds, shaken at approximately 800 rpm for 1 minute, and incubated at 35±2° C. for 22 hours. The concentration of BLi used in the assay was […]. At the end of the incubation, absorbance at 600 nm was determined using a spectrophotometer. Inhibition was quantitated by identifying the lowest concentration of test compound that was required to inhibit 95% of the growth of the bacteria. The results for Examples 1-39 are reported in Table I, expressed as the concentration of compound that inhibited 95% of bacterial growth (Minimum Inhibitory Threshold Concentration; MITC95).

[2] = tested on: Escherichia coli expressing NDM-1 (CLB30016)
Procedure: as §1, §2

[3] = tested on: Pseudomonas aeruginosa expressing AmpC (CL5701)
Procedure: as §1, §2

[4] = tested on: Acinetobacter baumannii expressing TEM-1, AmpC, and Oxa-24/40 (CL6188)
Procedure: as §1, §2

| Compound | KP_CL6569 MITC95 [1] [µM] | EC_CLB30016 MITC95 [2] [µM] | PA_CL5701 MITC95 [3] [µM] | AB_CL6188 MITC95 [4] [µM] |
| --- | --- | --- | --- | --- |
| CC1(C)[C@H](NC(=O)/C(=N\O[C@](C)(C(=O)O)[C@H]2CCc3cc(C4CN=C(NC[C@@H](O)CN)NC4)ccc3O2)c2csc(N)n2)C(=O)N1OS(=O)(=O)O.O=CO (stereo partly drawn) [Example 29, 2-(((S)-3-amino-2-hydroxypropyl)amino)-5-((R)-2-((S)-1-((((Z)-1-(2-aminothiazol-4-yl)-2-(((S)-2,2-dimethyl-4-oxo-1-(sulfooxy)azetidin-3-yl)amino)-2-oxoethylidene)amino)oxy)-1-carboxyethyl)chroman-6-yl)-3,4,5,6-tetrahydropyrimidin-1-ium formate] | 1.563 | 25 | 6.25 | 3.125 |
| CC1(C)[C@H](NC(=O)/C(=N\O[C@](C)(C(=O)O)[C@H]2CCc3cc(C4CN=C(NCCN)NC4)ccc3O2)c2csc(N)n2)C(=O)N1OS(=O)(=O)O.O=CO (stereo partly drawn) [Example 30, 2-((2-aminoethyl)amino)-5-((R)-2-((S)-1-((((Z)-1-(2-aminothiazol-4-yl)-2-(((S)-2,2-dimethyl-4-oxo-1-(sulfooxy)azetidin-3-yl)amino)-2-oxoethylidene)amino)oxy)-1-carboxyethyl)chroman-6-yl)-3,4,5,6-tetrahydropyrimidin-1-ium formate] | 3.125 | 25 | 6.25 | 25 |
| CC1(C)[C@H](NC(=O)/C(=N\O[C@](C)(C(=O)O)[C@H]2CCc3cc(C4CN=C(NC(CN)CN)NC4)ccc3O2)c2csc(N)n2)C(=O)N1OS(=O)(=O)O.O=CO (stereo partly drawn) [Example 31, 5-((R)-2-((S)-1-((((Z)-1-(2-aminothiazol-4-yl)-2-(((S)-2,2-dimethyl-4-oxo-1-(sulfooxy)azetidin-3-yl)amino)-2-oxoethylidene)amino)oxy)-1-carboxyethyl)chroman-6-yl)-2-((1,3-diaminopropan-2-yl)amino)-3,4,5,6-tetrahydropyrimidin-1-ium formate] | 0.3906 | 6.25 | 3.125 | 3.125 |
| CC1(C)[C@H](NC(=O)/C(=N\O[C@](C)(C(=O)O)[C@H]2CCc3cc(C4=CN=C(NCCCN)NC4)ccc3O2)c2csc(N)n2)C(=O)N1OS(=O)(=O)O [Example 32, 2-((3-aminopropyl)amino)-5-((R)-2-((S)-1-((((Z)-1-(2-aminothiazol-4-yl)-2-(((S)-2,2-dimethyl-4-oxo-1-(sulfooxy)azetidin-3-yl)amino)-2-oxoethylidene)amino)oxy)-1-carboxyethyl)chroman-6-yl)-3,4-dihydropyrimidin-1-ium Formate] | 0.1953 | 3.125 | 3.125 | 3.125 |
| CC1(C)[C@H](NC(=O)/C(=N\O[C@](C)(C(=O)O)[C@H]2CCc3cc(-c4cnc(NCCCN)nc4)ccc3O2)c2csc(N)n2)C(=O)N1OS(=O)(=O)O [Example 33, 3-((5-((R)-2-((S)-1-((((Z)-1-(2-aminothiazol-4-yl)-2-(((S)-2,2-dimethyl-4-oxo-1-(sulfooxy)azetidin-3-yl)amino)-2-oxoethylidene)amino)oxy)-1-carboxyethyl)chroman-6-yl)pyrimidin-2-yl)amino)propan-1-aminium Formate] | 0.3906 | 6.25 | 6.25 | 3.125 |
| C[n+]1cc(-c2ccc3c(c2)CC[C@H]([C@](C)(O/N=C(\C(=O)N[C@@H]2C(=O)N(OS(=O)(=O)[O-])C2(C)C)c2csc(N)n2)C(=O)O)O3)ccc1NCCN [Example 34, mono((S)-3-((Z)-2-(2-aminothiazol-3-ium-4-yl)-2-(((S)-1-((R)-6-(6-((2-ammonioethyl)amino)-1-methylpyridin-1-ium-3-yl)chroman-2-yl)-1-carboxy-ethoxy)imino)acetamido)-2,2-dimethyl-4-oxoazetidin-1-yl sulfate) mono(2,2,2-trifluoroacetate)] | 0.78 | 25 | 25 | 12.5 |
| C[n+]1cc(-c2ccc3c(c2)CC[C@H](CO/N=C(\C(=O)N[C@@H]2C(=O)N(OS(=O)(=O)[O-])C2(C)C)c2csc(N)n2)O3)ccc1NCCN [Example 35, mono((R)-3-((Z)-2-(2-aminothiazol-3-ium-4-yl)-2-((((R)-6-(6-((2-ammonioethyl)amino)-1-methyl-pyridin-1-ium-3-yl)chroman-2-yl)methoxy)imino)acetamido)-2,2-dimethyl-4-oxoazetidin-1-yl sulfate) mono(2,2,2-trifluoroacetate)] | 1.281 | 25 | 50 | 6.25 |
| C[n+]1cc(-c2ccc3c(c2)CC[C@@H](CO/N=C(\C(=O)N[C@@H]2C(=O)N(OS(=O)(=O)[O-])C2(C)C)c2csc(N)n2)O3)ccc1NCCN [Example 36, mono((R)-3-((Z)-2-(2-aminothiazol-3-ium-4-yl)-2-((((S)-6-(6-((2-ammonioethyl)amino)-1-methyl-pyridin-1-ium-3-yl)chroman-2-yl)methoxy)imino)acetamido)-2,2-dimethyl-4-oxoazetidin-1-yl sulfate) mono(2,2,2-trifluoroacetate)] | 0.7813 | 12.5 | 6.25 | 3.125 |
| C[n+]1cc(-c2ccc3c(c2)OCC(CO/N=C(\C(=O)N[C@@H]2C(=O)N(OS(=O)(=O)[O-])C2(C)C)c2csc(N)n2)C3)ccc1NCCN.O=C(O)C(F)(F)F (stereo partly drawn) [Example 38, mono((S)-3-((Z)-2-(2-aminothiazol-3-ium-4-yl)-2-((((S)-7-(6-((2-ammonioethyl)amino)-1-methylpyridin-1-ium-3-yl)chroman-3-yl)methoxy)imino)acetamido)-2,2-dimethyl-4-oxoazetidin-1-yl sulfate) mono(2,2,2-trifluoroacetate)] | 0.3906 | 6.25 | 6.25 | 6.25 |
| CC1(C)[C@H](NC(=O)/C(=N\O[C@](C)(C(=O)O)[C@H]2CCc3cc(-c4ccc5[n+](c4)CC(CN)CN5CCN)ccc3O2)c2csc(N)n2)C(=O)N1OS(=O)(=O)[O-].O=CO (stereo partly shown) [Example 39] | 0.3255 | 12.5 | 3.125 | 7.292 |
| CC1(C)[C@H](NC(=O)/C(=N\O[C@](C)(C(=O)O)[C@H]2CCc3cc(-c4cn(C[C@@H](O)CN)[n+](C[C@@H]5CCNC5)c4)ccc3O2)c2csc(N)n2)C(=O)N1OS(=O)(=O)O.O=C([O-])C(F)(F)F [Example 40, Mono((S)-3-((Z)-2-(((S)-1-((R)-6-(1-((S)-3-amino-2-hydroxypropyl)-2-((R)-pyrrolidin-3-ylmethyl)-1H-pyrazol-2-ium-4-yl)chroman-2-yl)-1-carboxyethoxy)imino)-2-(2-aminothiazol-4-yl)acetamido)-2,2-dimethyl-4-oxoazetidin-1-yl sulfate) mono (2,2,2-trifluoroacetate)] | 0.1 | >50 | 0.78 | 1.56 |
| CC1(C)[C@H](NC(=O)/C(=N\O[C@](C)(C(=O)O)[C@H]2CCc3cc(-c4cn(C[C@@H](O)CN)[n+](C[C@H]5CCNC5)c4)ccc3O2)c2csc(N)n2)C(=O)N1OS(=O)(=O)[O-] [Example 41, mono((S)-3-((Z)-2-(((S)-1-((R)-6-(1-((S)-3-amino-2-hydroxypropyl)-2-(((S)-pyrrolidin-1-ium-3-yl)methyl)-1H-pyrazol-2-ium-4-yl)chroman-2-yl)-1-carboxyethoxy)imino)-2-(2-aminothiazol-4-yl)acetamido)-2,2-dimethyl-4-oxoazetidin-1-yl sulfate) mono (2,2,2-trifluoroacetate)] | 0.1 | >50 | 0.78 | 1.56 |
| (S)-3-((Z)-2-(((S)-1-((R)-6-(1-(3-Aminopropyl)-2-(azetidin-3-ylmethyl)-1H-pyrazol-2-ium-4-yl)chroman-2-yl)-1-carboxyethoxy)imino)-2-(2-aminothiazol-4-yl)acetamido)-2,2-dimethyl-4-oxoazetidin-1-yl Sulfate [Example 3] | 0.39 | 3.13 | 6.25 | 6.25 |
